The record followed here is ChEMBL document CHEMBL1201862, “PubChem BioAssay data set” (2004).

Experiment in all cases: inhibition of tumour cell growth, NCI panel, 48 h
Test [1] relates to 786-0.
For test [2], the system named is A498.
The test system of test [3] is HCT-15.
For test [4], the system named is HOP-92.
For test [5], the system named is K562.
The test system of test [6] is MCF7.
Test [7] has as its system Malme-3M.
Test [8] has as its system NCI-H23.
Test [9] relates to OVCAR-3.
In test [10] the test system is RXF 393.
The test system of test [11] is SF-539.
The test system of test [12] is SK-MEL-2.
The test system of test [13] is SN12C.
The test system of test [14] is SNB-19.
For test [15], the system named is SR.
In test [16] the test system is SW-620.
For test [17], the system named is TK-10.
The test system of test [18] is UO-31.

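The compound was tested at five concentrations on cells cultured in 96-well plates, with a 48-hour exposure period. At the GI50, growth is halved.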 Activity calls are given as the source filed them. No stated cut-off is given here; in the data, active = GI50 up to about 1.1 µM and inactive = higher.

Consider `O=C(NCCOC(=O)OCCNC(=O)NC1CCCCC1)NC1CCCCC1`, for which the GI50 in test [1] was > 100 µM (inactive); in test [2], > 100 µM (inactive); in test [3] it was > 100 µM; in test [4], 27.1 µM (inactive); in test [5] it was > 100 µM (inactive); in test [6], 0.834 µM (active). Further, the GI50 in test [7] is > 100 µM (inactive); in test [8] it was 80.2 µM (inactive); in [9], > 100 µM (inactive); in [10] it was 72.6 µM (inactive); in test [11] it was 44.3 µM (inactive); in [12], > 100 µM (inactive). The GI50 was > 100 µM (inactive) in test [13]; > 100 µM (inactive) in test [14]; > 100 µM (inactive) in test [15]; > 100 µM (inactive) in test [16]; > 100 µM (inactive) in test [17]; 71.3 µM (inactive) in test [18].
For `C/C(=N\OCC(O)CNCCSCc1ccccc1)c1ccccc1Cl` (centres undefined), the GI50 in test [1] is 21.4 µM (inactive); in test [2], 15.6 µM (inactive); in test [3], 18.2 µM; in test [4], 13.2 µM (inactive); in [5] it was 38.4 µM (inactive); in [6], 19.8 µM (inactive). Besides, the GI50 in test [7] is 19.8 µM (inactive); in [8], 37.5 µM (inactive); in [9] it was 17.9 µM (inactive); in test [10] it was 18.7 µM (inactive); in test [11], 19.5 µM (inactive); in [12], 40.4 µM (inactive). Besides, the GI50 was 18.6 µM (inactive) in test [13]; 18.5 µM (inactive) in test [14]; 31.7 µM (inactive) in test [15]; 20 µM (inactive) in test [16]; 17 µM (inactive) in [17]; 15.7 µM (inactive) in [18].
`O=C1C=C/C(=C/[C@H]2SSC=C[C@]23C=CC(=O)C3)C1`: the GI50 in test [1] is 7.55 µM (inactive); in test [2], 17.6 µM (inactive); in [3], 14.9 µM; in [4] it was 20.6 µM (inactive); in test [5], 5.3 µM (inactive); in test [6], 5.79 µM (inactive). In addition, the GI50 is 16.9 µM (inactive) in [7]; 19.2 µM (inactive) in test [8]; 26.7 µM (inactive) in test [9]; 13.3 µM (inactive) in test [10]; 12.2 µM (inactive) in test [11]; 20 µM (inactive) in [12]. Also, the GI50 is 19.3 µM (inactive) in [13]; 36.1 µM (inactive) in test [14]; 1.75 µM (inactive) in test [15]; 11.9 µM (inactive) in test [16]; 24.7 µM (inactive) in test [17]; 14.8 µM (inactive) in test [18].
With `COc1ccc(/C=C2\C[C@H]3[C@@H]4CCC5=C/C(=N/O)CC[C@]5(C)[C@H]4CC[C@]3(C)\C2=N\O)cc1OC`, the GI50 in test [1] is 17.8 µM (inactive); in [2], 33.1 µM (inactive); in test [3], 14.7 µM; in [4], 7.85 µM (inactive); in test [5], 6.92 µM (inactive); in test [6] it was 6.87 µM (inactive). The GI50 in [7] is 43.5 µM (inactive); in test [8] it was 43.4 µM (inactive); in [9], 9.1 µM (inactive); in test [10], 28.4 µM (inactive); in test [11] it was 16.3 µM (inactive); in test [12], 15.9 µM (inactive). Further, the GI50 in test [13] was 12.7 µM (inactive); in test [14], 52.6 µM (inactive); in [15] it was 6.14 µM (inactive); in [16], 34.2 µM (inactive); in test [18] it was 4.5 µM (inactive).
For the molecule `CSc1ncc2c(n1)-c1ccccc1OC2NC(C)(C)C` (centres undefined), the GI50 in test [1] was > 100 µM (inactive); in test [2] it was 2.62 µM (inactive); in [3], > 100 µM; in test [4], 31.8 µM (inactive); in [5], > 100 µM (inactive); in test [6], 36.5 µM (inactive). The GI50 in test [7] is > 100 µM (inactive); in test [8], > 100 µM (inactive); in test [9] it was > 100 µM (inactive); in [10], 98.4 µM (inactive); in test [11] it was > 100 µM (inactive); in [13] it was > 100 µM (inactive). The GI50 in test [14] was > 100 µM (inactive); in [15] it was > 100 µM (inactive); in [16], > 100 µM (inactive); in test [17], 33.9 µM (inactive); in [18], 63.4 µM (inactive).
`COc1cccc(N2C(=O)CSC2c2cccc(Oc3ccccc3)c2)c1` (centres undefined): the GI50 in [1] is 6.47 µM (inactive); in [2] it was 3.94 µM (inactive); in test [3], 4.21 µM; in test [4], 6.21 µM (inactive); in [5] it was 3.42 µM (inactive); in [6] it was 2.48 µM (inactive). Moreover, the GI50 in test [7] is 9.02 µM (inactive); in test [8], 11.5 µM (inactive); in [9], 4.79 µM (inactive); in [10], 7.03 µM (inactive); in test [11] it was 4.27 µM (inactive); in test [12], 4.28 µM (inactive). Moreover, the GI50 in test [13] was 7.98 µM (inactive); in [14], 8.41 µM (inactive); in [15] it was 3.79 µM (inactive); in test [16] it was 4.8 µM (inactive); in [17] it was 4.45 µM (inactive); in test [18], 9.66 µM (inactive).
For the molecule `O=C(O)C(O)Cc1ccccn1` (centres undefined), the GI50 in [2] was > 100 µM (inactive); in test [3], > 100 µM; in test [4], > 100 µM (inactive); in [5], > 100 µM (inactive); in test [6] it was > 100 µM (inactive); in test [7] it was > 100 µM (inactive). In addition, the GI50 in [8], in test [9], in test [10], in test [12], in test [14] and in test [15] was > 100 µM (inactive) each time. The GI50 in test [16], in [17] and in [18] was > 100 µM (inactive) in each case.
For `Cc1ccc(S(=O)(=O)NC(=O)OC23COCN2COC3)cc1`, the GI50 in test [1] was > 100 µM (inactive); in test [2] it was > 100 µM (inactive); in test [3], > 100 µM; in test [4], > 100 µM (inactive); in test [5], > 100 µM (inactive); in [6], 91 µM (inactive). Further, the GI50 in [7], in test [8], in test [9], in [10], in [11] and in [12] was > 100 µM (inactive) throughout. The GI50 in [13] was > 100 µM (inactive); in test [14], > 100 µM (inactive); in [15] it was 31.6 µM (inactive); in test [16], 81.7 µM (inactive); in test [17], > 100 µM (inactive); in test [18], > 100 µM (inactive).
